Measurements published in article PMC8846325, “A Photoactivable Natural Product with Broad Antiviral Activity against Enveloped Viruses, Including Highly Pathogenic Coronaviruses” (Antimicrobial Agents and Chemotherapy, 2022).

Tests used:
HCoV-229E [1] = test: HCoV-229E-Luc infection inhibition luciferase assay; format: cell-based; settings: for antiviral activity against HCoV-229E-Luc, screening of related compounds: Huh-7 cells, 1, 5, 10 µM, light exposure; for light dependence of antiviral effect: HCoV-229E, light versus dark
[2] = MTS cell toxicity assay, Huh-7 cells; format: cell-based; settings: human, Huh-7 cells, 24 h
Experimental: (§1) A total of 6 × 10^4 Huh-7, Vero-E6, and Vero-81 cells were seeded in 96-well plates and incubated for 16 h at 37°C in a 5% CO2 incubator. The cells were then treated with increasing concentrations of the compound of interest. One hour after inoculation, cells were taken out of the incubator to be exposed to the white light of a biosafety cabinet (BSC) for 10 min, after which cells were further incubated in the dark at 37°C and 5% CO2 for 23 h. The BSC’s light source lamp consists of one fluorescent tube of 36 W, 3,350 lumen, white light. An MTS [3-(4,5-dimethylthiazol-2-yl)-5-(3-carboxymethoxyphenyl)-2-(4-sulfophenyl)-2H-tetrazolium]-based viability assay (Cell Titer 96 aqueous nonradioactive cell proliferation assay; Promega) was performed as recommended by the manufacturer. The absorbance of formazan at 490 nm was detected using a plate reader (ELX 808 Bio-Tek Instruments Inc.). Each measure was performed in triplicate, and each experiment was repeated at least 3 times.
(§2) 6×104 Huh-7, Vero-E6 and Vero-81 cells were seeded in 96-well plates and incubated for 16 h at 37 °C 5% CO2 incubator. The cells were then treated with increasing concentrations of the compound of interest. One hour after inoculation, cells were either left in the incubator (dark condition) or taken out to be exposed to the white light of the biosafety cabinet (BSC) for 10 min (light condition), after which cells were further incubated in the dark at 37 °C 5% CO2 for 23 h. BSC’s light source lamp consists of one fluorescent tube of 36W, 3350 lumen white light. An MTS [3-(4,5-dimethylthiazol-2-yl)-5-(3-carboxymethoxyphenyl)-2-(4-sulfophenyl)- 2H-tetrazolium]-based viability assay (Cell Titer 96 Aqueous non-radioactive cell proliferation assay, Promega) was performed as recommended by the manufacturer. The absorbance of formazan at 490 nm was detected using a plate reader (ELX 808 Bio-Tek […]
(§3) Instruments Inc). […]

Huh-7 cells = test: MTS cell toxicity assay, Huh-7 cells; format: cell-based; settings: for CC50: 24 h, light exposure
Experimental: as §1, §2, §3

HCoV-229E [3] = test: Quencher assay (singlet oxygen quenchers); format: cell-based
HCoV-229E [4] = test: Attachment assay (bound virions by qRT-PCR); format: cell-based; settings: Huh-7-TMPRSS2 cells, 4°C 1 h, 4.1 and 8.2 μM
[5] = tested on: pseudotyped viral particles with envelope proteins of VSV, HCV, SARS-CoV-2, and MERS-CoV; format: cell-based
HCoV-229E [6] = test: Time-of-addition assay, HCoV-229E-Luc; format: cell-based
Sindbis virus (SINV) = format: cell-based
MERS-CoV [7] = format: cell-based; settings: Mucilair cells, 2.5 μM, 72 h postinoculation
SARS-CoV-2 [8] = format: cell-based
[9] = tested on: Mucilair primary human bronchial epithelial cells; test: Mucilair toxicity assays (LDH secretion, transepithelial electrical resistance); settings: 0.25 and 2.5 μM, up to 72 h
SARS-CoV-2 [10] = format: cell-based; remark: listed apart in the source
SARS-CoV-2 [11] = test: microbe, parasite or virus in culture; format: cell-based
HCoV-229E [12] = test: HCoV-229E infectious titers (TCID50); format: cell-based
[13] = MTS cell toxicity assay, Vero-E6 cells; format: cell-based; settings: African green monkey, 24 h, 10 min light exposure after 1 h, read-out: 50% cytotoxic concentration (CC50)
Experimental: as §1
(§4) 6×104 Huh-7, Vero-E6 and Vero-81 cells were seeded in 96-well plates and incubated for 16 h at 37 °C 5% CO2 incubator. The cells were then treated with increasing concentrations of the compound of interest. […] The absorbance of formazan at 490 nm was detected using a plate reader (ELX 808 Bio-Tek […]

Vero-E6 cells = test: MTS cell toxicity assay, Vero-E6 cells; format: cell-based; settings: 24 h in incubator without light exposure
Experimental: as §1, §4

SARS-CoV-2 spike protein = SARS-CoV-2 spike protein (Severe acute respiratory syndrome coronavirus 2, UniProt P0DTC2); format: cell-based
[14] = MTS cell toxicity assay, Vero-81 cells; format: cell-based; settings: African green monkey, 24 h, 10 min light exposure after 1 h, read-out: 50% cytotoxic concentration (CC50)
Experimental: as §1, §4

Vero-81 cells = test: MTS cell toxicity assay, Vero-81 cells; format: cell-based; settings: 24 h in incubator without light exposure
Experimental: as §1, §4

coxsackievirus (CVB4) = format: cell-based, Coxsackievirus B4
hepatitis C virus = format: cell-based, HCV
yellow fever virus (YFV) = format: cell-based; settings: 1 and 2.5 μM, light 30 min prior to inoculation
HCoV-229E [15] = test: White light exposure kinetics; format: cell-based
HCoV-229E [16] = test: Trypsin-induced virus-cell fusion assay; format: cell-based; settings: Huh-7 cells, NH4Cl, 0.5 and 1 μM
MERS-CoV [17] = test: microbe, parasite or virus in culture; format: cell-based
[18] = light exposure, read-out: CC50 (μM) 24 h
[19] = against HCoV-229E, Huh-7 cells, normal white light exposure, read-out: IC50
[20] = Huh-7-TMPRSS2 cells, Pba 2 μM, BSC light

## C1=Cc2nc1cc1ccc([nH]1)c(-c1ccccc1)c1nc(cc3ccc([nH]3)c2-c2ccccc2)C=C1 [5,15-DPP]
HCoV-229E [1]
  antiviral activity against HCoV-229E-Luc, screening of related compounds: not active at the tested concentrations

## C=Cc1c(C)c2cc3nc(c(CC(=O)O)c4[nH]c(cc5nc(cc1[nH]2)C(C)=C5CC)c(C)c4C(=O)O)[C@@H](CCC(=O)O)[C@@H]3C [Chlorin e6, chlorin e6]
HCoV-229E [1]
  light dependence of antiviral effect: light-dependent antiviral effect
HCoV-229E [1]; Human coronavirus 229E, Huh-7
  IC50: 720 nM
[2]; [18]
  CC50 at 24 h: 21.4 µM

## C=Cc1c(C)c2cc3nc(c4c5[n-]c(cc6nc(cc1[n-]2)C(C=O)=C6CC)c(C)c5C(=O)[C@@H]4C(=O)OC)[C@@H](CCC(=O)OC/C=C(\C)CCC[C@H](C)CCC[C@H](C)CCCC(C)C)[C@@H]3C.[Mg+2] [Chlorophyll b]
HCoV-229E [1]
  antiviral activity against HCoV-229E-Luc, screening of related compounds: not active at the tested concentrations

## CCC1=C(C)c2cc3[nH]c(cc4nc(cc5c(CCC(=O)O)c(C)c(cc1n2)n5C)C(CCC(=O)O)=C4C)c(C)c3CC [N-Methyl mesoporphyrin IX, N-methyl mesoporphyrin IX]
HCoV-229E [1]
  light dependence of antiviral effect: light-dependent antiviral effect
HCoV-229E [1]; Huh-7 cells, dark
  antiviral activity under dark conditions: showed antiviral activity under dark conditions
HCoV-229E [1]; [19]
  IC50: 1250 nM
Huh-7 cells; Huh-7 cells
  CC50: > 80 µM

## [N-]=[N+]=[N-].[Na+] [NaN3]
HCoV-229E [3]
  effect of quencher on antiviral action of Pba: able to reduce the action of Pba

## C=Cc1c(C)c2cc3nc(c4c5[nH]c(cc6nc(cc1[nH]2)C(C)=C6CC)c(C)c5C(=O)[C@@H]4C(=O)OC)[C@@H](CCC(=O)O)[C@@H]3C [Pba, pheophorbide a]
HCoV-229E [4]
  virus attachment (bound HCoV-229E RNA levels): only a slight and nonsignificant decrease in RNA levels
[5]
  pseudoparticle infection: inhibited pseudoparticle infection regardless of the nature of the viral envelope protein but only under light conditions
HCoV-229E [6]
  infectivity, compound added more than 2 h after inoculation: normal levels of infectivity
HCoV-229E [6]; [20]
  inhibition of infection, compound added before inoculation (pretreatment of the cells): no inhibition of infection
  inhibition of infection, compound present during inoculation: strong inhibition of infection
Sindbis virus (SINV)
  antiviral activity on SINV (enveloped): clear antiviral effect
MERS-CoV [7]
  decrease of viral titers, MERS-CoV: more than 1 log10
  viral RNA levels of MERS-CoV: significantly decreased
SARS-CoV-2 [8]
  decrease of viral titers, SARS-CoV-2: more than 1 log10
  viral RNA levels of SARS-CoV-2: significantly decreased
[9]
  toxicity (LDH secretion and transepithelial electrical resistance): No toxicity was observed
SARS-CoV-2 [10]
  infectivity, compound added more than 2 h after inoculation: normal levels of infectivity
  inhibition of infection, compound added before inoculation (pretreatment of the cells): no inhibition of infection
  inhibition of infection, compound present during inoculation: strong inhibition of infection
SARS-CoV-2 [11]
  selectivity index, SARS-CoV-2: 32
SARS-CoV-2 [11]; Severe acute respiratory syndrome coronavirus 2, Vero C1008, read-out: IC50, SARS-CoV-2 infectious titers
  IC50: 180 nM
HCoV-229E [12]; CC50 Huh-7 / IC50 infectious titers
  selectivity index (SI), HCoV-229E: 44
HCoV-229E [12]; Human coronavirus 229E, Huh-7, 10 min, read-out: IC50, HCoV-229E infectious titers
  IC50: 100 nM
[13]
  CC50 at 24 h: 5.8 ± 1.9 µM
Vero-E6 cells
  concentrations at which no toxicity was exhibited: up to 120 μM
SARS-CoV-2 spike protein
  spike-induced cell-cell fusion (syncytium formation): cannot prevent cell-cell fusion
[14]
  CC50 at 24 h: 5.5 ± 2 µM
Vero-81 cells
  concentrations at which no toxicity was exhibited: up to 120 μM
Coxsackievirus (CVB4)
  antiviral activity on CVB4 (nonenveloped): not active
HCoV-229E [1]; Huh-7 cells, 25 μg/ml, 7 h postinoculation
  activity against HCoV-229E-Luc, extracts and fractions: the most active
HCoV-229E [1]; Huh-7 cells, dark, 10 μM
  antiviral activity in the dark: antiviral activity was observed
HCoV-229E [1]; Huh-7 versus Huh-7-TMPRSS2 cells
  antiviral activity in presence or absence of TMPRSS2: No difference in antiviral activity
HCoV-229E [1]; Human coronavirus 229E, Huh-7
  IC50: 540 nM
HCoV-229E [1]; Human coronavirus 229E, Huh-7, 7 h, read-out: 50% inhibitory concentration (IC50) against HCoV-229E-Luc
  IC50: 510 nM
HCoV-229E [1]; virus preincubated 30 min with 2 μM, diluted to 0.2 μM for inoculation, compared with 0.2 μM directly, Huh-7 cells
  antiviral activity after pretreatment of virus versus no pretreatment: much stronger
Hepatitis C virus
  antiviral activity on HCV (enveloped): clear antiviral effect
Yellow fever virus (YFV)
  antiviral activity on YFV (enveloped): clear antiviral effect
HCoV-229E [15]; 0.02 μM, 80 min light exposure
  antiviral effect at inactive concentration with long light exposure: no antiviral effect
HCoV-229E [15]; 0.02, 0.2, 2 μM, light 5 to 80 min
  inhibitory effect with longer light exposure times: increased inhibitory effect
HCoV-229E [16]
  infection under trypsin-mediated fusion conditions: strongly inhibited infection levels
[2]; 10 min light exposure after 1 h, read-out: 50% cytotoxic concentration (CC50)
  CC50 at 24 h: 4.4 ± 1.2 µM
[2]; [18]
  CC50 at 24 h: 6.08 µM
Huh-7 cells; Huh-7 cells, 24 h in incubator without light exposure
  concentrations at which no toxicity was exhibited: up to 120 μM
MERS-CoV [17]
  selectivity index, MERS-CoV: 24
MERS-CoV [17]; Middle East respiratory syndrome-related coronavirus, Huh-7, read-out: IC50, MERS-CoV infectious titers
  IC50: 180 nM

## C=Cc1c(C)c2cc3nc(c4c5[nH]c(cc6nc(cc1[nH]2)C(C)=C6CC)c(C)c5C(=O)C4)[C@@H](CCC(=O)O)[C@@H]3C [PyroPba, pyropheophorbide a]
HCoV-229E [1]
  light dependence of antiviral effect: light-dependent antiviral effect
HCoV-229E [1]; Human coronavirus 229E, Huh-7
  IC50: 350 nM
[2]; [18]
  CC50 at 24 h: 2.67 µM
Huh-7 cells; 5, 10, and 25 µM, light
  toxicity on Huh-7 cells, screening of related compounds: toxic at tested concentrations

## O=C1OC2(c3cc(I)c(O)c(I)c3Oc3c2cc(I)c(O)c3I)c2c(Cl)c(Cl)c(Cl)c(Cl)c21 [Rose Bengale]
HCoV-229E [1]
  antiviral activity against HCoV-229E-Luc, screening of related compounds: moderate antiviral activity
HCoV-229E [1]; [19]
  IC50: 2860 nM
Huh-7 cells; Huh-7 cells
  CC50: > 80 µM
